Source: patent US9359392B2, “Dendrimer scaffolds for pharmaceutical use” (Victoria Link Limited, priority 2012, dated 2016)

Assays:
[1] = Stability under forcing degradation conditions with HPLC monitoring; assay type: physicochemical
From the text: Assessment of Potential Cytotoxicity

sheep spleen cells = test: Assessment of potential cytotoxicity: percentage cell viability versus a PBS control; assay type: cell-based; conditions: 36.5° C.
Experimental: The potential cytotoxic properties of compounds 12, 13 and 14 were evaluated by measuring percentage cell viability of sheep spleen cells versus a PBS control after 24 h and 48 h exposure to 0.01, 0.1 and 1 mg/mL solutions of each compound in PBS at 36.5° C.

[2] = Water relaxivity measurements (T1, inversion recovery NMR); assay type: physicochemical; conditions: 500 MHz (11.75 T), 30° C., aqueous solution
Experimental: Water relaxivity measurements provide an indication of whether a material will increase contrast in MRI imaging techniques. Water relaxivity measurements were performed in aqueous solutions. T1 measurements were made on a 500 MHz (11.75 T) Bruker NMR using a standard inversion recovery sequence (180-t-90) at 30° C. The relaxivity of water in D2O in the presence of (meglumine)2[Gd(III)(DPTA)(OH2)]

[3] = comparator salt, stated without test; cited from earlier work

## 2-Aminoacetic acid(N,N):{6,9-diaza-3-oxa-7-oxononanyl(9,9)}2x,4x,8x^G1,G2,G3:(6-aza-3,11-dioxa-7,10-dioxoundecanyl)16-cascadane [compound 13]
[1]; 24 h in 1% H2O2 at 20° C.
  degradation: 63%
[1]; 24 h in 1 M HCl at 20° C.
  degradation: 12%
[1]; 24 h in 1 M NaOH at 20° C.
  degradation: 30%
[1]; 24 h neat at 40° C.
  degradation: No observable degradation
[1]; 24 h neat at 80° C.
  degradation: 41%
Sheep spleen cells; 0.01 mg/mL in PBS, 24 h
  Cell viability: 107%
Sheep spleen cells; 0.01 mg/mL in PBS, 48 h
  Cell viability: 97%
Sheep spleen cells; 0.1 mg/mL in PBS, 24 h
  Cell viability: 104%
Sheep spleen cells; 0.1 mg/mL in PBS, 48 h
  Cell viability: 98%
Sheep spleen cells; 1 mg/mL in PBS, 24 h
  Cell viability: 106%
Sheep spleen cells; 1 mg/mL in PBS, 48 h
  Cell viability: 100%

## 2-Aminoacetic acid(N,N):{6,9-diaza-3-oxa-7-oxononanyl(9,9)}2x,4x,8x^G1,G2,G3:(6-aza-3-oxa-7-oxooctanyl)16-cascadane [compound 14]
Sheep spleen cells; 0.01 mg/mL in PBS, 24 h
  Cell viability: 104%
Sheep spleen cells; 0.01 mg/mL in PBS, 48 h
  Cell viability: 99%
Sheep spleen cells; 0.1 mg/mL in PBS, 24 h
  Cell viability: 104%
Sheep spleen cells; 0.1 mg/mL in PBS, 48 h
  Cell viability: 97%
Sheep spleen cells; 1 mg/mL in PBS, 24 h
  Cell viability: 97%
Sheep spleen cells; 1 mg/mL in PBS, 48 h
  Cell viability: 90%

## 2-Aminoacetic acid(N,N):{6,9-diaza-3-oxa-7-oxononanyl(9,9)}2x,4x,8x^G1,G2,G36:(5-amino-3-oxapentanyl)16-cascadane [compound 12]
Sheep spleen cells; 0.01 mg/mL in PBS, 24 h
  Cell viability: 94%
Sheep spleen cells; 0.01 mg/mL in PBS, 48 h
  Cell viability: 84%
Sheep spleen cells; 0.1 mg/mL in PBS, 24 h
  Cell viability: 92%
Sheep spleen cells; 0.1 mg/mL in PBS, 48 h
  Cell viability: 85%
Sheep spleen cells; 1 mg/mL in PBS, 24 h
  Cell viability: 99%
Sheep spleen cells; 1 mg/mL in PBS, 48 h
  Cell viability: 87%

## CNC[C@H](O)[C@@H](O)[C@H](O)[C@H](O)CO.CNC[C@H](O)[C@@H](O)[C@H](O)[C@H](O)CO.O=C([O-])CN(CCN(CC(=O)[O-])CC(=O)O)CCN(CC(=O)[O-])CC(=O)O.[Gd+3] [(meglumine)2[Gd(III)(DPTA)(OH2)], reference compound]
[2]
  relaxivity of water in D2O: 3.84 mM⁻¹ s⁻¹

## O=C([O-])CN(CCN(CC(=O)[O-])CC(=O)[O-])CCN(CC(=O)[O-])CC(=O)[O-].[Gd+3].[Na+].[Na+] [Gd-DPTA disodium salt]
[3]
  water solubility: sparingly water soluble

## Gadolinium complex of 2-aminoacetic acid(N,N):{6-aza-3-oxahexanyl(6,6)}2x^G1: (carboxymethyl)4-cascadane [34-Gd]
[2]
  relaxivity of water in D2O: 1.20 mM⁻¹ s⁻¹
